Experimental data as given in patent US11318190B2, “Methods and compositions for treating liver disease” (UNITED STATES GOVERNMENT AS REPRESENTED BY THE DEPARTMENT …, priority 2017, dated 2022).

Legend:
[1] = tested on: human hepatic stellate cells (hHSC); assay: hHSC activation by cholangiocyte supernatants from treated mice (qPCR); format: cell-based
Protocol: In vitro experiments were performed in human hepatic stellate cells (hHSC) that were purchased from ScienCell Research Laboratories (Carlsbad, Calif.) that were maintained in standard conditions.
[…] Activation of hHSCs was determined by qPCR for FN-1, TGF-β1, α-SMA, and collagen type-1a (Kennedy, L L et al., Knockout of microRNA-21 reduces biliary hyperplasia and liver fibrosis in cholestatic bile duct ligated mice, Lab Invest 96:1256-1267 (2016)).

HHSteCs = HHSteCs incubated with biliary/IMCL supernatants with/without LY2109761, or with TGF-β1 (Example 2); format: cell-based, human
Protocol: Biliary supernatants were obtained from normal and BDL WT mice and Sct^−/−, SR^−/− and Sct^−/−/SR^−/− BDL mice as well as normal WT mice treated with saline or secretin. HHSteCs were incubated with the aforementioned biliary supernatants (containing different levels of TGF-β1) for 24 hr (in the absence or presence of LY2109761) before measuring the expression of senescence and fibrosis genes by real-time PCR. Furthermore, HHSteCs were incubated with the supernatant of large IMCLs treated for 0.2% bovine serum albumin (basal) or secretin (10 nM) with/without LY2109761 for 6 hr before measuring the mRNA expression of fibrosis and senescence genes. To provide direct evidence that TGF-β1 directly modulates fibrosis and senescence of IMCLs and HHSteCs, these cells were stimulated with TGF-β1 (10 nM) for 24 hr before measuring the expression of PCNA as well as fibrosis and senescence genes by real-time PCR.

IMCLs = IMCLs treated with Sct with/without microRNA 125b mimic precursor, TGF-β1 or r-VEGFA (Example 4); format: cell-based, mouse; conditions: Sct 10 nM, 12 hr
Protocol: Cholangiocytes were obtained by immunoaffinity separation, Cholangiocytes were obtained by immunoaffinity separation as described herein above, using a monoclonal antibody (a gift from Dr. R. Faris, Brown University, Providence, R.I.) that is expressed by all intrahepatic cholangiocytes. Cell viability (greater than 97%) was assessed by trypan blue exclusion. HSCs were isolated by LCM as described herein above. Frozen liver sections (n=3, 10 μm thick) were incubated overnight with an antibody against desmin (marker of stellate cells). Following staining, desmin-positive HSCs were dissected from the slides by a LCM system Leica LMD7000 (Buffalo Grove, Ill.) and collected into a PCR tube before being analyzed. The RNA from HSCs was extracted with the Arcturus PicoPure RNA isolation kit (Thermo Fisher Scientific CO, Mountain View, Calif.). The in vitro studies were performed in our immortalized murine biliary cell lines (IMCLs) and human hepatic stellate cell lines (HHSteCs, Sciencell, Carlsbad, USA).
In biliary supernatants, the levels of TGF-β1 were measured by ELISA kits. […] We also evaluated by immunofluorescence the expression of VEGFR-2 in cell smears of IMCLs and HHSteCs. […]

WT mice = WT mice treated 1 wk with secretin: TGF-β1, fibrosis, cellular senescence; format: in vivo, mouse
Protocol: WT mice were treated for 1 wk with saline or secretin (Sct; 2.5 nmoles/kg body weight per day) before collecting cholangiocytes, HSCs and cholangiocyte supernatants. The levels of TGF-β1 were measured in short-term (6-hour) cultures of cholangiocytes by ELISA kits. Subsequently, we measured: (i) liver fibrosis by immunofluorescence for Col1a1 in liver sections and real-time PCR for TGF-β1, TFG-β1R, Col1a1, α-SMA and Fn1 in cholangiocytes and HSCs; and (ii) cellular senescence by immunofluorescence in liver sections for p16 and real-time PCR for p16 and p21 in cholangiocytes and HSC.

[2] = cholangiocyte supernatant from secretin-treated WT mice, 24 hr
[3] = supernatant of large IMCLs after secretin 10 nM, 6 hr

secretin [Sct]
expression of FN-1, TGF-β1, α-SMA and collagen type-1a in hHSCs ([1]; cholangiocyte supernatants from treated dnTGF-βRII mice 12 wks): further enhanced | expression of FN-1, TGF-β1, α-SMA and collagen type-1a in hHSCs ([1]; cholangiocyte supernatants from treated dnTGF-βRII mice 34 wks): reduced | expression of fibrosis genes in HHSteCs (HHSteCs; [2]): increased expression | expression of senescence genes in HHSteCs (HHSteCs; [2]): reduced expression | expression of senescence genes of HHSteCs (HHSteCs; [3]): decreases | fibrosis gene expression of HHSteCs (HHSteCs; [3]): increases | TGF-β1 mRNA expression of IMCLs and TGF-β1 levels in IMCLs supernatant (IMCLs): increased | TGF-β1 levels in cholangiocyte supernatant (WT mice; secretin 2.5 nmoles/kg/day 1 wk vs saline): enhanced levels | biliary immunoreactivity of Collagen I and mRNA of TGF-β1, TFG-β1R, Col1a1, α-SMA, Fn1 in cholangiocytes and HSCs (WT mice; secretin 1 wk): increased | p16 immunoreactivity in liver sections, p16 and p21 expression in cholangiocytes (WT mice; secretin 1 wk): enhanced | p16 and p21 mRNA expression in isolated HSCs (WT mice; secretin 1 wk vs saline): reduced
